Data published in PubChem BioAssay AID248 (DTP/NCI, 2004).
Where “and” joins values, the source holds several entries; their conditions need not be identical. Equal entries are not always repeated. Toxic doses and inconclusive results are not listed. Rule as the data show it: active = T/C of 150% or more; inactive = T/C below 125%.

Test system: L1210 leukemia ip in BDF1 mice, survival T/C
Experiment: NCI In Vivo Anticancer Drug Screen. Data for tumor model L1210 Leukemia (intraperitoneal) in B6D2F1 (BDF1) mice
Settings: endpoint: mean survival time, higher = longer survival
How it was run: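 Ratio derived from survival: compound-dosed mice over vehicle-dosed mice, all bearing a transplantable tumor.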

[1] = dose: 25.0 mg/kg/injection, schedule: Q01DX009 (ip), vehicle: Klucel (hydroxypropylcellulose) (HPC)
[2] = dose: 50.0 mg/kg/injection, schedule: Q01DX009 (ip), vehicle: Klucel (hydroxypropylcellulose) (HPC)
[3] = dose: 100.0 mg/kg/injection, schedule: Q01DX009 (ip), vehicle: Klucel (hydroxypropylcellulose) (HPC)
[4] = dose: 100.0 mg/kg/injection, schedule: Q01DX009 (ip), vehicle: saline
[5] = dose: 100.0 mg/kg/injection, schedule: Q04DX003 (ip), vehicle: saline
[6] = dose: 200.0 mg/kg/injection, schedule: Q01DX009 (ip), vehicle: saline
[7] = dose: 200.0 mg/kg/injection, schedule: Q04DX003 (ip), vehicle: saline
[8] = dose: 400.0 mg/kg/injection, schedule: Q04DX003 (ip), vehicle: saline
[9] = dose: 100.0 mg/kg/injection, schedule: Q01DX001 (ip), vehicle: Klucel (hydroxypropylcellulose) (HPC)
[10] = dose: 200.0 mg/kg/injection, schedule: Q01DX001 (ip), vehicle: Klucel (hydroxypropylcellulose) (HPC)
[11] = dose: 400.0 mg/kg/injection, schedule: Q01DX001 (ip), vehicle: Klucel (hydroxypropylcellulose) (HPC)
[12] = dose: 100.0 mg/kg/injection, schedule: Q01DX001 (ip), vehicle: carboxymethylcellulose (CMC)
[13] = dose: 200.0 mg/kg/injection, schedule: Q01DX001 (ip), vehicle: carboxymethylcellulose (CMC)
[14] = dose: 400.0 mg/kg/injection, schedule: Q01DX001 (ip), vehicle: carboxymethylcellulose (CMC)
[15] = dose: 100.0 mg/kg/injection, schedule: Q01DX009 (ip), vehicle: saline with Tween-80
[16] = dose: 100.0 mg/kg/injection, schedule: Q04DX003 (ip), vehicle: saline with Tween-80
[17] = dose: 200.0 mg/kg/injection, schedule: Q04DX003 (ip), vehicle: saline with Tween-80
[18] = dose: 100.0 mg/kg/injection, schedule: Q04DX003 (ip), vehicle: Klucel (hydroxypropylcellulose) (HPC)
[19] = dose: 200.0 mg/kg/injection, schedule: Q04DX003 (ip), vehicle: Klucel (hydroxypropylcellulose) (HPC)
[20] = dose: 200.0 mg/kg/injection, schedule: Q01DX009 (ip), vehicle: Klucel (hydroxypropylcellulose) (HPC)
[21] = dose: 400.0 mg/kg/injection, schedule: Q01DX009 (ip), vehicle: Klucel (hydroxypropylcellulose) (HPC)

Measured: T/C

CCOC(=O)c1ccc(NCC2=Nc3c(N)nc(N)nc3NC2)cc1
inactive: dose: 3.0 mg/kg/injection, schedule: Q01DX009 (ip), vehicle: Klucel (hydroxypropylcellulose) (HPC) 92 % of control | dose: 6.0 mg/kg/injection, schedule: Q01DX009 (ip), vehicle: Klucel (hydroxypropylcellulose) (HPC) 97 % of control | dose: 12.0 mg/kg/injection, schedule: Q01DX009 (ip), vehicle: Klucel (hydroxypropylcellulose) (HPC) 101 % of control and 108 % of control | [1] 97 % of control | [2] 90 % of control | [3] 89 % of control

CC(CN)NCc1ccccc1 (stereo not drawn)
inactive: [4] 96 % of control | [5] 103 % of control | [6] 94 % of control | [7] 103 % of control | [8] 95 % of control

O=C1C2(Cl)C(Cl)=C(Cl)C1(Cl)C1(Cl)C(Cl)=C(Cl)C(=O)C21Cl (stereo not drawn)
inactive: [9] 102 % of control | [10] 102 % of control | [11] 97 % of control

CC1(C)OC2COC3(COC(C)(C)O3)C(O)C2O1 (stereo not drawn)
inactive: dose: 100.0 mg/kg/injection, schedule: Q04DX002 (ip), vehicle: saline 96 % of control | dose: 200.0 mg/kg/injection, schedule: Q04DX002 (ip), vehicle: saline 100 % of control | dose: 400.0 mg/kg/injection, schedule: Q04DX002 (ip), vehicle: saline 104 % of control

O=C(CCCl)N1CCN(C(=O)CCCl)c2ccccc21
inactive: [12] 103 % of control | [13] 96 % of control | [14] 96 % of control

O=C(O)C(CNC(=O)C(F)(F)F)Cc1ccc([N+](=O)[O-])cc1 (stereo not drawn)
inactive: [15] 120 % of control | [4] 88 % of control | [6] 103 % of control

COC1OC2COC(c3ccccc3)OC2C(OS(=O)(=O)c2ccc(C)cc2)C1OS(=O)(=O)c1ccc(C)cc1 (stereo not drawn)
inactive: [15] 93 % of control | [16] 88 % of control | dose: 200.0 mg/kg/injection, schedule: Q01DX009 (ip), vehicle: saline with Tween-80 90 % of control | [17] 91 % of control | dose: 400.0 mg/kg/injection, schedule: Q01DX009 (ip), vehicle: saline with Tween-80 95 % of control

COc1ccc(C(=O)NN2C(N)=NC(N)=NC2(C)C)cc1
inactive: [5] 94 % of control | [7] 97 % of control

CC(Cc1ccccc1)NC(=O)NCCCl (stereo not drawn)
inactive: dose: 12.5 mg/kg/injection, schedule: Q01DX009 (ip), vehicle: Klucel (hydroxypropylcellulose) (HPC) 101 % of control | [1] 101 % of control | [2] 90 % of control | [9] 92 % of control | [18] 106 % of control | [10] 90 % of control | [19] 117 % of control | [11] 94 % of control

O=[N+]([O-])c1cc(S(=O)(=O)O)cc(S(=O)(=O)O)c1O
inactive: [4] 102 % of control | [5] 94 % of control | [6] 94 % of control | [7] 100 % of control | dose: 400.0 mg/kg/injection, schedule: Q01DX009 (ip), vehicle: saline 91 % of control | [8] 93 % of control

ClC(Cl)=C(Cl)c1ccccc1
inactive: dose: 25.6 mg/kg/injection, schedule: Q04DX002 (ip), vehicle: saline with Tween-80 93 % of control | dose: 64.0 mg/kg/injection, schedule: Q04DX002 (ip), vehicle: saline with Tween-80 87 % of control | [16] 98 % of control | dose: 160.0 mg/kg/injection, schedule: Q04DX002 (ip), vehicle: saline with Tween-80 90 % of control | [17] 93 % of control | dose: 400.0 mg/kg/injection, schedule: Q04DX002 (ip), vehicle: saline with Tween-80 93 % of control | dose: 400.0 mg/kg/injection, schedule: Q04DX003 (ip), vehicle: saline with Tween-80 93 % of control

CN1CC(C)(C)C(=O)c2ccccc21
inactive: dose: 100.0 mg/kg/injection, schedule: Q04DX002 (ip), vehicle: other 95 % of control | dose: 200.0 mg/kg/injection, schedule: Q04DX002 (ip), vehicle: other 103 % of control | dose: 400.0 mg/kg/injection, schedule: Q04DX002 (ip), vehicle: other 103 % of control

c1ccc2c(c1)Sc1ccccc1S2
inactive: dose: 50.0 mg/kg/injection, schedule: Q01DX001 (ip), vehicle: carboxymethylcellulose (CMC) 106 % of control | [12] 112 % of control | [13] 101 % of control | [14] 104 % of control

Clc1ccc(NC(Nc2ccc(Cl)cc2)C(Cl)(Cl)Cl)cc1
inactive: dose: 50.0 mg/kg/injection, schedule: Q01DX001 (ip), vehicle: Klucel (hydroxypropylcellulose) (HPC) 93 % of control | [9] 93 % of control | [10] 90 % of control

CC1=NOC(=O)C12CC2
inactive: dose: 75.0 mg/kg/injection, schedule: Q01DX001 (ip), vehicle: saline 100 % of control | dose: 150.0 mg/kg/injection, schedule: Q01DX001 (ip), vehicle: saline 100 % of control | dose: 300.0 mg/kg/injection, schedule: Q01DX001 (ip), vehicle: saline 103 % of control

CCCCOP(=O)(Cc1ccccc1)Oc1ccccc1 (stereo not drawn)
inactive: [3] 95 % of control | [20] 97 % of control | [21] 105 % of control

OC(Cc1ccccc1)(c1ccccc1)C(O)(Cc1ccccc1)c1ccccc1 (stereo not drawn)
inactive: dose: 50.0 mg/kg/injection, schedule: Q01DX001 (ip), vehicle: saline 94 % of control | dose: 100.0 mg/kg/injection, schedule: Q01DX001 (ip), vehicle: saline 94 % of control | dose: 200.0 mg/kg/injection, schedule: Q01DX001 (ip), vehicle: saline 94 % of control | dose: 400.0 mg/kg/injection, schedule: Q01DX001 (ip), vehicle: saline 94 % of control

COc1cc2c(cc1OC)N(C(C)=O)Cc1ccc(C=O)n1C2
inactive: dose: 25.0 mg/kg/injection, schedule: Q04DX002 (ip), vehicle: Klucel (hydroxypropylcellulose) (HPC) 105 % of control | dose: 50.0 mg/kg/injection, schedule: Q04DX002 (ip), vehicle: Klucel (hydroxypropylcellulose) (HPC) 97 % of control | dose: 100.0 mg/kg/injection, schedule: Q04DX002 (ip), vehicle: Klucel (hydroxypropylcellulose) (HPC) 90 % of control

CN1c2cccc[c]2[Sn]([c]2ccccc2)([c]2ccccc2)[c]2ccccc21
inactive: dose: 100.0 mg/kg/injection, schedule: Q01DX001 (ip), vehicle: steriod suspending solution 94 % of control | dose: 200.0 mg/kg/injection, schedule: Q01DX001 (ip), vehicle: steriod suspending solution 94 % of control | dose: 400.0 mg/kg/injection, schedule: Q01DX001 (ip), vehicle: steriod suspending solution 100 % of control

Clc1ccc(NC2=NCCS2)cc1
inactive: [3] 104 % of control | [20] 100 % of control | [21] 93 % of control

CCCCC(CCC)(CCN)CCCC
inactive: dose: 1.0 mg/kg/injection, schedule: Q01DX009 (ip), vehicle: Klucel (hydroxypropylcellulose) (HPC) 100 % of control | dose: 2.0 mg/kg/injection, schedule: Q01DX009 (ip), vehicle: Klucel (hydroxypropylcellulose) (HPC) 100 % of control | dose: 2.0 mg/kg/injection, schedule: Q04DX003 (ip), vehicle: Klucel (hydroxypropylcellulose) (HPC) 98 % of control | dose: 4.0 mg/kg/injection, schedule: Q01DX009 (ip), vehicle: Klucel (hydroxypropylcellulose) (HPC) 101 % of control | dose: 4.0 mg/kg/injection, schedule: Q04DX003 (ip), vehicle: Klucel (hydroxypropylcellulose) (HPC) 98 % of control | dose: 8.0 mg/kg/injection, schedule: Q01DX009 (ip), vehicle: Klucel (hydroxypropylcellulose) (HPC) 100 % of control | dose: 8.0 mg/kg/injection, schedule: Q04DX003 (ip), vehicle: Klucel (hydroxypropylcellulose) (HPC) 93 % of control | dose: 16.0 mg/kg/injection, schedule: Q04DX003 (ip), vehicle: Klucel (hydroxypropylcellulose) (HPC) 96 % of control | dose: 25.0 mg/kg/injection, schedule: Q01DX001 (ip), vehicle: carboxymethylcellulose (CMC) 95 % of control | [12] 93 % of control

Cc1ccc(/C=C\C(=O)c2ccccc2)cc1
inactive: [18] 100 % of control | [19] 96 % of control | dose: 400.0 mg/kg/injection, schedule: Q04DX003 (ip), vehicle: Klucel (hydroxypropylcellulose) (HPC) 102 % of control
